Where two headings read alike, the source gives them in different places.
Key:
HTT mRNA = assay: RT-qPCR splicing assay, HTT mRNA canonical (CJ) and alternative (AJ) junction; type: cell-based, human; conditions: Homo sapiens; for AC50: HTT alternative junction mRNA increase, read-out: HTT AJ (increase in alternative junction mRNA, AC50)
Summary of the method: (§1)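 Canonical and alternative-exon junction isoforms were quantified by RT-qPCR in cell lysates, with ΔCt against a housekeeper (GAPDH/GUSB/PPIA), then ΔΔCt vs DMSO, converted to 2^(−ΔΔCt) and percent response. K562 or A673 cells were exposed for 24 h to 11 concentrations (3-fold, top final 10 uM).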

SMN2 mRNA = assay: RT-qPCR splicing assay, SMN2 mRNA; type: cell-based, human; conditions: Homo sapiens, canonical junction qPCR panel, Table 4; read-out: SMN2 IC50 (decrease in CJ mRNA levels)
Summary of the method: as §1

MYB mRNA = assay: RT-qPCR splicing assay, MYB mRNA canonical (CJ) and alternative (AJ) junction; type: cell-based, human; conditions: Homo sapiens; for AC50: MYB alternative junction mRNA increase, read-out: MYB AJ (increase in alternative junction mRNA, AC50)
Summary of the method: as §1

Target C = assay: RT-qPCR canonical junction panel assay, Target C mRNA; type: cell-based; conditions: Table 4, read-out: Target C IC50 (decrease in CJ mRNA levels)
Method: Compounds described herein were used to modulate RNA transcript abundance in cells. The expression of a target mRNA was measured by detecting the formation of an exon-exon junction in the canonical transcript (CJ). A compound mediated exon-inclusion event was detected by observing an increase in formation of a new junction with an alternative exon (AJ). Real-time qPCR assays were used to detect these splicing switches and interrogate the potency of various compounds towards different target genes. A high-throughput real time quantitative PCR (RT-qPCR) assay was developed to measure these two isoforms of the mRNA (CJ and AJ) for exemplary genes, such as HTT, SMN2, and MYB, together with a control housekeeping gene, GAPDH or GUSB or PPIA, used for normalization. Briefly, the A673 or K562 cell line was treated with various compounds described herein (e.g., compounds of Formula (I)). After treatment, the levels of the HTT, MYB, or SMN2 mRNA targets were determined from each sample of cell lysate by cDNA synthesis followed by qPCR.
The data analysis was performed by first determining the ΔCt vs the housekeeper gene. This ΔCt was then normalized against the DMSO control (ΔΔCt) and converted to RQ (relative quantification) using the 2^(−ΔΔCt) equation. The RQ were then converted to a percentage response by arbitrarily setting an assay window of 3.5 and 4.0 ΔCt for HTT-CJ and MYB-CJ respectively and an assay window of 9 and 3 ΔCt for HTT-AJ and MYB-AJ in 96 well format (50,000 K562 cells/well and 15,000 A673 cells per well) and an assay window of 3 and 4 ΔCt for HTT-CJ and MYB-CJ respectively and an assay window of 5 and 3 ΔCt for HTT-AJ and MYB-AJ respectively in 384 well format (8,000 K562 cells/well example). […] The percentage response was then fitted to the 4 parametric logistic equation to evaluate the concentration dependence of compound treatment. The increase in AJ mRNA is reported as AC50 (compound concentration having 50% response in AJ increase) while the decrease in CJ mRNA levels is reported as IC50 (compound concentration having […] in CJ decrease).
Additional studies were carried out for a larger panel of genes using the protocol provided above. The junction between flanking upstream and downstream exons was used to design canonical junction Qpcr assays. At least one of the forward primer, reverse primer or the CY5-labeled 5′ nuclease probe (with 3′ quencher such as ZEN/Iowa Black FQ) was designed to overlap with the exon junction to capture the CJ Mrna transcript. BLAST was used to confirm the specificity of the probeset and parameters suCH As melting temperature, GC content, amplicon size, and primer dimer formation are considered during their design. Data for the decrease in CJ Mrna levels for four exemplary genes (HTT, SMN2, MYB, and Target C) analyzed in this panel are reported as IC50 (compound concentration having […] in CJ decrease).

K562 cells = assay: Cell Titer Glo 2.0 cell viability (toxicity) assay, K562; conditions: 500 cells/well, 72 hours
[1] = RT-qPCR, HTT canonical junction mRNA decrease, read-out: HTT CJ (decrease in canonical junction mRNA, IC50)
[2] = canonical junction qPCR panel, Table 4, read-out: HTT IC50 (decrease in CJ mRNA levels)
[3] = RT-qPCR, MYB canonical junction mRNA decrease, read-out: MYB CJ (decrease in canonical junction mRNA, IC50)
[4] = canonical junction qPCR panel, Table 4, read-out: MYB IC50 (decrease in CJ mRNA levels)

| SMILES | IC50 (HTT mRNA; [1]) | IC50 (HTT mRNA; [2]) | IC50 (SMN2 mRNA) | IC50 (MYB mRNA; [3]) | IC50 (MYB mRNA; [4]) | IC50 (Target C) | AC50 (HTT mRNA; RT-qPCR) | AC50 (MYB mRNA; RT-qPCR) | Effect of Exemplary Compounds on Cell Viability, K562 (K562 cells) |
| --- | --- | --- | --- | --- | --- | --- | --- | --- | --- |
| C[C@@H]1CN(c2ccc3nc(-c4cc5cn(C)nc5cc4O)ncc3c2)CC2(CC2)N1 (single isomer, unassigned) [Compound 813] | > 10000 nM | > 10000 nM | < 100 nM | 100 to 1000 nM | 100 to 1000 nM | > 10000 nM | > 10000 nM | 100 to 1000 nM | B (B represents 100-1000 nM) |
| Cc1cn2cc(-c3ncc4cc(N5C[C@H](C)NC6(CC6)C5)ccc4n3)cc(F)c2n1 (single isomer, unassigned) [Compound 814] | 100 to 1000 nM | 100 to 1000 nM | < 100 nM | 100 to 1000 nM | 100 to 1000 nM | > 10000 nM | 1000 to 10000 nM | 100 to 1000 nM | B (B represents 100-1000 nM) |
| Cc1cn2cc(-c3ncc4cc(N5C[C@@H](C)NC6(CC6)C5)ccc4n3)cc(F)c2n1 (single isomer, unassigned) [Compound 815] | 1000 to 10000 nM | 1000 to 10000 nM | < 100 nM | 100 to 1000 nM | 100 to 1000 nM | > 10000 nM | 1000 to 10000 nM | 100 to 1000 nM | B (B represents 100-1000 nM) |
| C[C@H]1CN(c2ccc3nc(-c4cc(F)c5nncn5c4)ncc3c2)C[C@H](C)N1 (single isomer, unassigned) [Compound 820] | > 10000 nM | > 10000 nM | 100 to 1000 nM | 1000 to 10000 nM | 1000 to 10000 nM | > 10000 nM | > 10000 nM | 1000 to 10000 nM | C (C represents 1000-9999 nM) |
| Cc1nc(-c2cc(F)c3nn(C)cc3c2)nc2ccc(N3C[C@@H](C)N[C@@H](C)C3)cc12 [Compound 781, 6-[(3R,5S)-3,5-dimethylpiperazin-1-yl]-2-(7-fluoro-2-methylindazol-5-yl)-4-methylquinazoline] | > 10000 nM | > 10000 nM | 100 to 1000 nM | 1000 to 10000 nM | 1000 to 10000 nM | > 10000 nM | > 10000 nM | 1000 to 10000 nM | C (C represents 1000-9999 nM) |
| Cc1nc(-c2cc3cn(C)nc3cc2O)nc2ccc(N3C[C@@H](C)N[C@@H](C)C3)cc12 [Compound 782, 5-(6-((3S,5R)-3,5-dimethylpiperazin-1-yl)-4-methylquinazolin-2-yl)-2-methyl-2H-indazol-6-ol 2,2,2-trifluoroacetate] | 1000 to 10000 nM | 1000 to 10000 nM | < 100 nM | 100 to 1000 nM | 100 to 1000 nM | > 10000 nM | > 10000 nM | 100 to 1000 nM | B (B represents 100-1000 nM) |
| Cc1c(O)c(-c2nc(C(N)=O)c3cc(N4C[C@@H](C)N[C@@H](C)C4)ccc3n2)cc2cn(C)nc12 [Compound 784, 6-[(3R,5S)-3,5-dimethylpiperazin-1-yl]-2-(6-hydroxy-2,7-dimethylindazol-5-yl)quinazoline-4-carboxamide] | 1000 to 10000 nM | 1000 to 10000 nM | < 100 nM | < 100 nM | < 100 nM | > 10000 nM | > 10000 nM | < 100 nM | A (A represents <100 nM) |
| C[C@@H]1CN(c2ccc3nc(-c4cc5cn(C)nc5cc4O)nc(C(N)=O)c3c2)C[C@H](C)N1 [Compound 785, 6-((3R,5S)-3,5-dimethylpiperazin-1-yl)-2-(6-hydroxy-2-methyl-2H-indazol-5-yl)quinazoline-4-carboxamide 2,2,2-trifluoroacetate] | 1000 to 10000 nM | 1000 to 10000 nM | < 100 nM | < 100 nM | < 100 nM | 1000 to 10000 nM | > 10000 nM | 100 to 1000 nM | A (A represents <100 nM) |
| Cc1c(O)c(-c2ncc3cc(N4CCC(N5CCC5)CC4)ccc3n2)cc2cn(C)nc12 [Compound 786, 5-{6-[4-(azetidin-1-yl)piperidin-1-yl]quinazolin-2-yl}-2,7-dimethylindazol-6-ol] | 100 to 1000 nM | 100 to 1000 nM | < 100 nM | 100 to 1000 nM | 100 to 1000 nM | 100 to 1000 nM | 100 to 1000 nM | 100 to 1000 nM | B (B represents 100-1000 nM) |
| Cn1cc2cc(-c3ncc4cc(N5CCC(N6CCC6)CC5)ccc4n3)cc(F)c2n1 [Compound 787, 6-[4-(azetidin-1-yl)piperidin-1-yl]-2-(7-fluoro-2-methylindazol-5-yl)quinazoline] | 1000 to 10000 nM | 1000 to 10000 nM | < 100 nM | 100 to 1000 nM | 100 to 1000 nM | 1000 to 10000 nM | 1000 to 10000 nM | 100 to 1000 nM | B (B represents 100-1000 nM) |

Further lines, with some results ahead:

| IC50 (HTT mRNA; [1]) | IC50 (HTT mRNA; [2]) | IC50 (SMN2 mRNA) | IC50 (MYB mRNA; [3]) | IC50 (MYB mRNA; [4]) | IC50 (Target C) | SMILES | AC50 (HTT mRNA; RT-qPCR) | AC50 (MYB mRNA; RT-qPCR) | Effect of Exemplary Compounds on Cell Viability, K562 (K562 cells) |
| --- | --- | --- | --- | --- | --- | --- | --- | --- | --- |
| 100 to 1000 nM | 100 to 1000 nM | < 100 nM | < 100 nM | < 100 nM | 1000 to 10000 nM | Cc1cn2cc(-c3ncc4cc(N5C[C@H](C)N[C@@H](C)C5)ccc4n3)cc(Cl)c2n1 (single isomer, unassigned) [Compound 818] | 1000 to 10000 nM | < 100 nM | A (A represents <100 nM) |
| 1000 to 10000 nM | 1000 to 10000 nM | 100 to 1000 nM | 100 to 1000 nM | 100 to 1000 nM | 1000 to 10000 nM | Cc1nc2c(F)cc(-c3ncc4cc(N5C[C@H](C)N[C@@H](C)C5)ccc4n3)cn2c1F (single isomer, unassigned) [Compound 822] | > 10000 nM | 1000 to 10000 nM | B (B represents 100-1000 nM) |
| 1000 to 10000 nM | 1000 to 10000 nM | < 100 nM | 100 to 1000 nM | 100 to 1000 nM | 1000 to 10000 nM | C[C@@H]1CN(c2ccc3nc(-c4cc(F)c5nn(C)cc5c4)ncc3c2)C[C@H](C)N1 [Compound 780, 6-[(3R,5S)-3,5-dimethylpiperazin-1-yl]-2-(7-fluoro-2-methylindazol-5-yl)quinazoline] | 1000 to 10000 nM | 100 to 1000 nM | B (B represents 100-1000 nM) |
| > 10000 nM | > 10000 nM | < 100 nM | 100 to 1000 nM | 100 to 1000 nM | > 10000 nM | Cc1nc(-c2cc3cn(C)nc3c(C)c2O)nc2ccc(N3C[C@@H](C)N[C@@H](C)C3)cc12 [Compound 783, 5-{6-[(3R,5S)-3,5-dimethylpiperazin-1-yl]-4-methylquinazolin-2-yl}-2,7-dimethylindazol-6-ol] | > 10000 nM | 100 to 1000 nM | B (B represents 100-1000 nM) |

— US20250092065A1, “2-(INDAZOL-5-YL)-6-(PIPERIDIN-4-YL)-1,7-NAPHTHYRIDINE DERIVATIVES AND RELATED COMPOUNDS AS MODULATORS FOR SPLICING NUCLEIC ACIDS AND FOR THE TREATMENT OF PROLIFERATIVE DISEASES” (REMIX THERAPEUTICS INC., priority 2022, published 2025)
